Consider three molecules from patent US20200330456A1, “NOVEL APPLICATION OF GZD824 AND PHARMACEUTICALLY ACCEPTABLE SALTS THEREOF IN TREATING DISEASES” (HEALTHQUEST PHARMA INC., priority 2016, published 2020).

One assay concerns NALM6 cells. As to the kind of experiment: Apoptosis kit (ANNEXIN V, PI) flow cytometry, NALM6. The assay is classed as cell-based. As to conditions: 24 hours, GZD824 vs KX2-391 vs HO-3867 vs DMSO. How it is done:
1.2 After treating NALM6 and SUPB15 cells respectively with GZD824 (3 μM, 1 μM) and DMSO of different concentrations for 24 hours, apoptosis was detected using an apoptosis kit (ANNEXIN V, PI). Please refer to FIG. 2 for the results. After treating the two types of cells NALM6 and SUPB15 respectively with GZD824 of different concentrations (3 μM/L, 1 μM/L) for 24 hours, the cells were stained with the apoptosis kit (ANNEXIN V, PI), and apoptosis was detected with flow cytometry.
5.3 After treating NALM6 cells with GZD824, SRC suppressor (KX2-391), STAT3 suppressor (HO-3867) or DMSO for 24 hours, apoptosis was detected by using the apoptosis kit (ANNEXIN V, PI). The ratio of ANNEXIN V positive cells was analyzed by statistical methods. […] For the experimental results, please refer to FIG. 15.

For assay [1], the system named is human primary leukemia cells from P #1 PDX mouse spleen. As to the kind of experiment: Apoptosis of human primary leukemia cells from P #1 PDX mouse spleen, with and without IGF-1. The assay is classed as cell-based. As to conditions: P #1 PDX spleen cells; GZD824 1 μM/L and IGF-1 10 ng/mL, 24 hours. How it is done:
6.2 Human primary leukemia cells were extracted from P #1 PDX mouse spleen and co-cultured with DMSO, GZD824 (1 μM/L), IGF-1 (10 ng/mL), or GZD824 (1 μM/L) and IGF-1 (10 ng/mL) for 24 hours. The ratios of ANNEXIN V positive cells were analyzed by statistical methods. […] Please refer to FIG. 17 for the experimental results.

As for `O=C(Cc1ccc(-c2ccc(OCCN3CCOCC3)cc2)cn1)NCc1ccccc1` [KX2-391, reference compound], the “ratio of apoptosis (ANNEXIN V positive cells), comparison of inhibitors” value with NALM6 cells is given as “almost the same”. `CC1(C)C=C(CN2C/C(=C\c3ccc(F)cc3)C(=O)/C(=C/c3ccc(F)cc3)C2)C(C)(C)N1O` [HO-3867, reference compound]: the “ratio of apoptosis (ANNEXIN V positive cells), comparison of inhibitors” value in the assay with NALM6 cells is on record as “almost the same”. With “IGF-1: cytokine IGF-1, added at 10 ng/mL”, in assay [1], the “effect of added IGF-1 on GZD824-induced apoptosis” value was “partly reverse the effect of GZD824 on apoptosis”.
